Experimental data published in US9643971B2 (GALLEON PHARMACEUTICALS, INC., priority 2013, dated 2017).
Where a name gives a salt, the structure may show the parent alone.

Experiments:
anesthetized rat = experiment: Anesthetized rat spirometry screening assay; assay type: in vivo; conditions: 2 minute AUC of minute volume increase vs. comparator N-[2,6-di-(n-propylamino)-[1,3]pyrimidin-4-yl]-N,O-dimethyl-hydroxylamine
Source text: Effect of Compounds of the Invention on Respiratory Rate (RR), Tidal Volume (VT), and the Product Minute Volume Using an Anesthetized Rat Spirometry Screening Assay
Anesthetized rats provide a quick method of screening compounds for respiratory and cardiovascular activity. In contrast to the conscious rat model, this model offers an experimental set up with less variation in the baseline cardiovascular and respiratory measures. Compounds screened in this assay may be examined in a conscious rat model.
Rats were initially anesthetized with 3% isoflurane (inhaled) and femoral artery and vein cannulas were surgically inserted. Once cannulated, the rats were transitioned to urethane anesthesia (1.5 g/kg; i.v.) and a tracheal cut-down was performed. After placing the tracheal cannula, it was connected to a pneumotachometer to record respiratory airflow from which respiratory rate (RR), tidal volume (VT), and their product minute volume were derived. After the surgical preparation was complete, animals were allowed to stabilize for 30 minutes while respiratory rate, tidal volume, minute volume, blood pressure and heart rate were recorded continuously. Arterial blood gases (ABG) were obtained from arterial blood collected from the femoral artery. ABG measurements were taken before and 6 minutes after vehicle and each dose of compound administered. Compounds being screened were administered via bolus injections through the venous cannula followed by a saline flush (total time of administration is approximately 30 seconds), and the animal was monitored for at least 6 minutes for changes in cardiovascular efforts. Compounds were prepared in formulations identified to ensure optimal solubility. As such, vehicle controls were matched for the formulation of each compound tested. Dosing of the compound being screened was 0.1 and 0.3 mg/kg. The next dose was not administered until all cardiovascular and respiratory measures had returned to baseline levels. The positive control compounds used were N-[4,6-di-(n-propylamino)-[1,3,5]triazin-2-yl]-N,O-dimethyl-hydroxylamine or N-[2,6-di-(n-propylamino)-[1,3]pyrimidin-4-yl]-N,O-dimethyl-hydroxylamine (both administered at the end of each screening experiment (0.3 mg/kg dose) to validate the experiment and also to serve as a measure with which the compound being screened could be compared.
Data were analyzed by collecting cardiovascular and respiratory data in 30 second averages (BINs). Data were plotted 2 minutes before challenge and then 6 minutes after challenge.

in vitro = conditions: male, rat, microsomes
[1] = In vitro metabolic stability in human liver microsomes (HLM); conditions: both, human, liver microsomes

| SMILES | AUC MV Inc (2 min) (ratio vs. std*) (anesthetized rat) | half-life at 5 μM (in vitro) | half-life at 5 μM [1] |
| --- | --- | --- | --- |
| CCCNc1nc(NC)c2nc(Cl)nc(NC)c2n1 [Compound 54, 6-Chloro-N^4,N^8-dimethyl-N^2-n-propyl-pyrimido[5,4-d]pyrimidine-2,4,8-triamine] | 0.09 ratio vs. std | 40 min | 82 min |
| CCCCNc1nc(NC)c2nc(NCCCC)nc(NC)c2n1.Cl [Compound 83a, N^2,N^6-Di-n-butyl-N^4,N^8-dimethyl-pyrimido[5,4-d]pyrimidine-2,4,6,8-tetraamine hydrochloride] | 1.05 ratio vs. std | 335 min | 249 min |
| CCCNc1nc(N2CCC(OC)CC2)nc2c(NCCC)nc(NC)nc12 [Compound 47a, N^2-Methyl-N^4,N^8-di-n-propyl-6-(4-methoxy-piperidin-1-yl)-pyrimido[5,4-d]pyrimidine-2,4,8-triamine] | 0.00 ratio vs. std | 106 min | 110 min |
| CCCNc1nc(OC)nc2c(NCCC)nc(NC)nc12 [Compound 120a, 6-Methoxy-N^2-methyl-N^4,N^8-di-n-propyl-pyrimido[5,4-d]pyrimidine-2,4,8-triamine] | 0.36 ratio vs. std | 82 min | 114 min |
| CCCNc1nc(N(C)OC)nc2c(NCCC)nc(N(C)OC)nc12 [Compound 19a, N^2,N^6-Bis-(N-Methoxy(N-methyl)amino)-N^4,N^8-bis-n-propylamino-pyrimido[5,4-d]pyrimidine hydrochloride] | 0.00 ratio vs. std | 106 min | 110 min |
| CCCNc1nc(NC(C)C)nc2c(NCCC)nc(NC(C)C)nc12.Cl [Compound 10a, N^2,N^6-Di-i-propyl-N^4,N^8-di-n-propyl-pyrimido[5,4-d]pyrimidine-2,4,6,8-tetraamine hydrochloride] | 0.07 ratio vs. std | 162 min | 462 min |
| CCCNc1nc(NCC2CC2)nc2c(NCCC)nc(NCC3CC3)nc12 [Compound 140a, N^2,N^6-Bis-cyclopropylmethyl-N^4,N^8-di-n-propyl-pyrimido[5,4-d]pyrimidine-2,4,6,8-tetraamine] |  | 50 min | 71 min |
| CCCNc1nc(NC)c2nc(-c3ccc(F)cc3)nc(NC)c2n1 [Compound 112a, N^4,N^8-Dimethyl-N^2-n-Propyl-6-(4-fluorophenyl)-pyrimido[5,4-d]pyrimidine-2,4,8-triamine] | 0.14 ratio vs. std | 104 min | 121 min |
| CCCCc1nc(NCCC)c2nc(NC)nc(NCCC)c2n1 [Compound 118a, 6-n-Butyl-N^2-methyl-N^4,N^8-di-n-propyl-pyrimido[5,4-d]pyrimidine-2,4,8-triamine] | 0.05 ratio vs. std | 34 min | 72 min |
| CCCNc1nc(NCc2ccc(F)cc2)nc2c(NCCC)nc(NC)nc12 [Compound 53a, N^2-(4-Fluorobenzyl)-N^6-methyl-N^4,N^8-di-n-propyl-pyrimido[5,4-d]pyrimidine-2,4,6,8-tetraamine] | 0.06 ratio vs. std | 94 min | 79 min |
| CCCNc1nc(NCCOC)nc2c(NCCC)nc(NC)nc12 [Compound 35a, N^2-(2-Methoxyethyl)-N^6-methyl-N^4,N^8-di-n-propyl-pyrimido[5,4-d]pyrimidine-2,4,6,8-tetraamine] | 1.33 ratio vs. std | 102 min | 225 min |
| CCCCNc1nc(NCCC)c2nc(NCCCC)nc(NCCC)c2n1.Cl [Compound 8a, N^2,N^6-Di-n-butyl-N^4,N^8-di-n-propyl-pyrimido[5,4-d]pyrimidine-2,4,6,8-tetraamine hydrochloride] | 0.14 ratio vs. std | 331 min | > 500 min |
| CNc1nc(N(C)NC)nc2c(NC)nc(N(C)NC)nc12 [Compound 91, 2,6-bis-(N,N′-dimethyl-hydrazino)-N^4,N^8-dimethyl-pyrimido[5,4-d]pyrimidine-4,8-diamine] | 0.08 ratio vs. std | 24 min | 102 min |
| CCCNc1nc(NC)c2nc(N(CCOC)CCOC)nc(NC)c2n1 [Compound 68a, N^2,N^2-Bis-(2-methoxyethyl)-N^4,N^8-dimethyl-N^6-n-propyl-pyrimido[5,4-d]pyrimidine-2,4,6,8-tetraamine] | 0.00 ratio vs. std |  |  |
| CCCNc1nc(NCC)c2nc(NCCC)nc(NCC)c2n1 [Compound 127a, N^4,N^8-Diethyl-N^2,N^6-di-n-propyl-pyrimido[5,4-d]pyrimidine-2,4,6,8-tetraamine] | 0.86 ratio vs. std |  |  |
| C=CCNc1nc(NCC=C)c2nc(N3CCN(Cc4ccc(F)cc4)CC3)nc(NCC=C)c2n1.Cl.Cl [Compound 148a, N^2,N^4,N^8-Triallyl-6-[4-(4-fluorobenzyl)-piperazin-1-yl]-pyrimido[5,4-d]pyrimidine-2,4,8-triamine dihydrochloride] | 0.00 ratio vs. std |  |  |
| CCNc1nc(NCC2CC2)nc2c(NCC)nc(NCC3CC3)nc12 [Compound 129a, N^2,N^6-Bis-cyclopropylmethyl-N^4,N^8-diethyl-pyrimido[5,4-d]pyrimidine-2,4,6,8-tetraamine] | 0.25 ratio vs. std |  |  |
| CNc1nc(NCC(C)C)nc2c(NC)nc(NCC(C)C)nc12.Cl [Compound 87a, N^2,N^6-Diisobutyl-N^4,N^8-dimethyl-pyrimido[5,4-d]pyrimidine-2,4,6,8-tetraamine hydrochloride] | 0.18 ratio vs. std |  |  |
| CCCNc1nc(NC)c2nc(OCCC)nc(NC)c2n1 [Compound 95a, N^4,N^8-Dimethyl-6-propoxy-N^2-n-propyl-pyrimido[5,4-d]pyrimidine-2,4,8-triamine] | 0.36 ratio vs. std |  |  |
| C=CCN(CC=C)c1nc(NC)c2nc(NCCC)nc(NC)c2n1 [Compound 58a, N^2,N^2-Diallyl-N^4,N^8-dimethyl-N^6-n-propyl-pyrimido[5,4-d]pyrimidine-2,4,6,8-tetraamine] | 0.18 ratio vs. std |  |  |
| CCCNc1nc(NC)c2nc(N3CCC(F)(F)CC3)nc(NC)c2n1 [Compound 77a, N^2-n-Propyl-N^4,N^8-dimethyl-6-(4,4-difluoro-piperidin-1-yl)-pyrimido[5,4-d]pyrimidine-2,4,8-triamine hydrochloride] | 0.55 ratio vs. std |  |  |
| CCCNc1nc(NC)nc2c(NCCC)nc(C#N)nc12 [Compound 122a, 6-Methylamino-4,8-bis-n-propylamino-pyrimido[5,4-d]pyrimidine-2-carbonitrile] | 0.00 ratio vs. std |  |  |
| CCCNc1nc(NC)c2nc(NCCOC(C)C)nc(NC)c2n1 [Compound 62a, N^2-(2-Isopropoxy-ethyl)-N^4,N^8-dimethyl-N^6-n-propyl-pyrimido[5,4-d]pyrimidine-2,4,6,8-tetraamine] | 0.55 ratio vs. std |  |  |
| CCCNc1nc(N(C)C)nc2c(NCCC)nc(N(C)C)nc12 [Compound 142a, N^2,N^2,N^6,N^6-Tetramethyl-N^4,N^8-di-n-propyl-pyrimido[5,4-d]pyrimidine-2,4,6,8-tetraamine] | 0.05 ratio vs. std |  |  |
| C=CCNc1nc(NCC=C)c2nc(N3CCN(C(c4ccc(F)cc4)c4ccc(F)cc4)CC3)nc(NCC=C)c2n1 [Compound 150a, N^2,N^4,N^8-Triallyl-6-{4-[bis-(4-fluorophenyl)-methyl]-piperazin-1-yl}-pyrimido[5,4-d]pyrimidine-2,4,8-triamine] | 0.00 ratio vs. std |  |  |
| CCCNc1nc(NC)c2nc(N(CCO)CCO)nc(NC)c2n1.Cl [Compound 66a, 2-[(4,8-Bis-methylamino-6-n-propylamino-pyrimido[5,4-d]pyrimidin-2-yl)-(2-hydroxy-ethyl)-amino]-ethanol hydrochloride] | 0.14 ratio vs. std |  |  |
| CCCNc1nc(NC)c2nc(CN)nc(NC)c2n1 [Compound 105a, N^4,N^8-Dimethyl-N^2-n-propyl-6-(aminomethyl)-pyrimido[5,4-d]pyrimidine-2,4,8-triamine] | 0.00 ratio vs. std |  |  |
| CCCNC(=O)CNc1nc(NC)c2nc(NCCC)nc(NC)c2n1.Cl [Compound 157a, N-n-Propyl-[2-(4,8-bis-methylamino-6-propylamino-pyrimido[5,4-d]pyrimidin-2-ylamino)]-acetamide hydrochloride] | 0.04 ratio vs. std |  |  |
